Several values for one entry are separate records, joined by “and”; a condition that tells them apart may be missing. Equal values may be shown once.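 Dose response: 5 concentrations. Exposure: 48 h. Format: 96-well plates. Endpoint: linear interpolation; highest concentration if not reached. GI50: concentration for 50% inhibition of growth. At the TGI there is no net growth.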
Assays:
Experiment in all cases: NCI-60 cell line screen, 48 h
[1] = system: CCRF-CEM leukemia
[2] = system: HCT-15 colon
[3] = system: HOP-62 NSCLC
[4] = system: IGROV1 ovarian
[5] = system: NCI/ADR-RES ovarian
[6] = system: SK-MEL-2 melanoma
[7] = system: SK-MEL-28 melanoma
[8] = system: SK-MEL-5 melanoma
[9] = system: SNB-19 CNS
[10] = system: SNB-75 CNS

Row | Compound | GI50 [1] | TGI [1] | GI50 [2] | TGI [2] | GI50 [3] | TGI [3] | GI50 [4] | TGI [4] | GI50 [5] | TGI [5] | GI50 [6] | TGI [6] | GI50 [7] | TGI [7] | GI50 [8] | TGI [8] | GI50 [9] | TGI [9] | GI50 [10] | TGI [10]
1 | COc1cc(OC)c(C(=O)/C=C/c2cccc(C#N)c2)c(OC)c1 | 1.03 µM | > 50 µM | 0.853 µM | 3.02 µM | 1.33 µM | 4.55 µM | 1.55 µM | 5.91 µM | 1.44 µM | 10.5 µM | 1.49 µM | 6.44 µM | 1.58 µM | 6.24 µM | 1.55 µM | 6.16 µM | 1.67 µM | 6.61 µM | 1.31 µM | 5.62 µM
2 | NC(=O)Nc1cc(-c2cccc(F)c2)sc1C(=O)N[C@H]1CCCNC1 | 0.0414 µM and 0.124 µM | > 2.96 µM and 3 µM | 1.3 µM and 1.96 µM | > 7.18 µM and 10.7 µM | 0.0876 µM and 0.292 µM | 1.67 µM and 2.82 µM | 0.0701 µM and 0.27 µM | 1.16 µM and 1.74 µM | 2.19 µM and 3.16 µM | > 10 µM and 19.8 µM | 0.151 µM and 0.244 µM | > 3.75 µM and 3.15 µM | 2.95 µM and 3.53 µM | > 10 µM and 16.9 µM | 0.295 µM and 0.456 µM | 2.06 µM and 4.27 µM | 0.562 µM and 0.54 µM | > 5.85 µM and 6.88 µM | 0.0316 µM and 0.102 µM | 1.01 µM and 1.07 µM
3 | COc1ccccc1CNCCCN1C(=O)c2ccc3c4c(ccc(c24)C1=O)C(=O)N(CCCN)C3=O | 0.441 µM | 2.76 µM | 1.41 µM | 3.67 µM | 1.42 µM | 2.95 µM | 1.35 µM | 3.48 µM | 2.86 µM | 9.6 µM | 1.46 µM | 3.31 µM | 1.74 µM | 3.75 µM | 0.262 µM | 0.899 µM | 1.58 µM | 3.37 µM | 1.36 µM | 2.72 µM
4 | Cc1nn(C)c(COc2ccc(N3CCN(S(=O)(=O)N(C)C)CC3)cc2)c1-c1cccc2c(CCCOc3cccc4ccccc34)c(C(=O)O)n(CCN3CCOCC3)c12 | 4.19 µM | > 100 µM | 7.62 µM | 22.9 µM | 3.03 µM | 14.4 µM | 3.52 µM | 11.7 µM | 36.5 µM | > 100 µM | 1.95 µM | 4.35 µM | 2.07 µM | 4.87 µM | 2.44 µM | 5.96 µM | 3.63 µM | 23.4 µM | 2.11 µM | 10.5 µM
5 | COC(=O)C1=C(C)NC(C)=C(C(=O)OCC(C)C)C1c1ccccc1[N+](=O)[O-] (stereo not drawn) | 2.45 µM | 11.3 µM | 3.88 µM | 15.9 µM | 5.24 µM | 18.4 µM | 5.55 µM | 25.9 µM | 2.07 µM | 16.8 µM | 4 µM | 13.6 µM | 4.18 µM | 15.2 µM | 2.72 µM | 10.1 µM | 8.2 µM | 64.3 µM | 2.44 µM | 15.2 µM
6 | N#Cc1nc2c(S(=O)(=O)c3ccc(Cl)cc3)c(N)n(CCCN3CCOCC3)c2nc1C#N | 2.19 µM | 6.28 µM | 4.32 µM | 27.1 µM | 15.2 µM | 51.3 µM | – | – | 33.2 µM | > 100 µM | 6.77 µM | 24.5 µM | 4.11 µM | 15.7 µM | 6.67 µM | 20 µM | 28.2 µM | > 100 µM | 11.1 µM | 48.3 µM
